Reference: ChEMBL document CHEMBL1201862, “PubChem BioAssay data set” (2004)
Several values for one entry are separate records, joined by “and”; a condition that tells them apart may be missing. Equal values may be shown once. Activity calls are given as the source filed them.

Tests used:
Paired box protein Pax-8 = Paired box protein Pax-8 (Homo sapiens, UniProt Q06710); assay: PAX8 transcriptional activity inhibition in RMG-I – RMG-I cells, luciferase, cherry-pick, dose response (AID 687027); assay type: functional, cell-based;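 further: luciferase reporter driven by Pax8 target thyroperoxidase promoter measured by SteadyGlo luminescence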
Chain of Paired box protein Pax-8 (Q06710 whole entry): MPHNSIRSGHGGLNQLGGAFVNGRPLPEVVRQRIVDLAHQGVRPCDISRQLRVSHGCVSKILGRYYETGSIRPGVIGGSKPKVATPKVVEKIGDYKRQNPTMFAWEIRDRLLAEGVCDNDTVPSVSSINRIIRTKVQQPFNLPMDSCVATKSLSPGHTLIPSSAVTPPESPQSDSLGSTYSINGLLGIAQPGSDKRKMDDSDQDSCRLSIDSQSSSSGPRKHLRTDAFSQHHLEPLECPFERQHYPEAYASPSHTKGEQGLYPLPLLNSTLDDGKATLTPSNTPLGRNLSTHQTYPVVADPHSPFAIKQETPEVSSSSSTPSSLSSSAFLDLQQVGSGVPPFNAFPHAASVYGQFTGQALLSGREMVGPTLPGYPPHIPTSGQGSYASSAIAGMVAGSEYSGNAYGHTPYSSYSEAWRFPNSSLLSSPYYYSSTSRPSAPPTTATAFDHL

[1] = A2780 cell killing – plate reader, dry powder samples, cytotoxicity control, dose response (AID 743046); assay type: functional, cell-based
[2] = viability loss in A549 lung cells – cell-based, 24 h, CellTiter-Glo luminescence, cherry-picks, cytotoxicity control, dose response (AID 1053115); assay type: functional; settings: A549, 24 h
[3] = OVCAR-3 cell viability loss – plate reader, dry powder samples, PAX8 inhibitor project, dose response (AID 743044); assay type: functional, cell-based
[4] = OVCAR8 cell viability loss – plate reader, dry powder samples, PAX8 project, dose response (AID 743197); assay type: functional, cell-based; settings: OVCAR-8
[5] = system: Streptococcus sp. 'group A'; assay: Streptococcus pyogenes SK(-)GAS viability under kanamycin – luminescence, BacTiterGlo, confirmation, counter-screen for streptokinase expression inhibitor project, dose response (AID 1900); assay type: functional, organism-based
Streptokinase A = target: T1, Streptokinase A (Streptococcus pyogenes serotype M1, UniProt P10520); assay: viability-normalized secreted streptokinase activity reduction – plasminogen activation absorbance, OD405, dose response (AID 1914); assay type: functional, Streptococcus pyogenes M1 GAS;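 further: secreted streptokinase activity via plasminogen activation per viability signal from cell pellet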
T1 sequence (P10520 whole entry): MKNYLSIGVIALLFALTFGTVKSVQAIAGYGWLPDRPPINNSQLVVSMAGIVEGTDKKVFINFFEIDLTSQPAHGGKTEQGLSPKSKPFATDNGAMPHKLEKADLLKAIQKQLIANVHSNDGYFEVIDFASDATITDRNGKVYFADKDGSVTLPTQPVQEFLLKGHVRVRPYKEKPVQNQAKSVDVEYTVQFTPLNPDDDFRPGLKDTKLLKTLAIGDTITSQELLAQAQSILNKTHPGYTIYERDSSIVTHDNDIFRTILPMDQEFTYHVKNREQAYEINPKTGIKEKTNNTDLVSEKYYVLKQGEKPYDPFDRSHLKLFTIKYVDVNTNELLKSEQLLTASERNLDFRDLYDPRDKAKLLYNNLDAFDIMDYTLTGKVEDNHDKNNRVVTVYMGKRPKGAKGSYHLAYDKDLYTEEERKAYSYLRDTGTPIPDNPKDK

[6] = Trypanosoma cruzi growth suppression in host cells – NIH3T3 host cells, beta-gal luminescence, confirmation (AID 2044); assay type: functional, cell-based;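 further: intracellular parasites grown in NIH/3T3 mouse fibroblasts as host cells; luminescent beta-galactosidase reporter signal from transgenic T. cruzi replicating inside host cells; inhibitors lower the luminescence signal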
[7] = NIH3T3 cell viability loss – ATP luminescence, mouse fibroblasts, counter-screen, dose response (AID 2010); assay type: functional, cell-based;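 further: cells exposed to compound for about 90 hours before reading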
Streptococcus = assay: GAS UMAA2166 growth inhibition – luminescence, BacTiterGlo, counter-screen for streptokinase expression inhibitor project, dose response (AID 1915); assay type: functional, organism-based;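 further: potency for reduction of bacterial viability or growth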
[8] = target: T2, Disintegrin and metalloproteinase domain-containing protein 17 (Homo sapiens, UniProt P78536); assay: inhibition of ADAM17 substrate cleavage – biochemical, quenched FRET substrate, counter-screen for ADAM10 exosite inhibitor project, dose response (AID 743253)
T2 sequence (P78536 whole entry, the tested form may be a part): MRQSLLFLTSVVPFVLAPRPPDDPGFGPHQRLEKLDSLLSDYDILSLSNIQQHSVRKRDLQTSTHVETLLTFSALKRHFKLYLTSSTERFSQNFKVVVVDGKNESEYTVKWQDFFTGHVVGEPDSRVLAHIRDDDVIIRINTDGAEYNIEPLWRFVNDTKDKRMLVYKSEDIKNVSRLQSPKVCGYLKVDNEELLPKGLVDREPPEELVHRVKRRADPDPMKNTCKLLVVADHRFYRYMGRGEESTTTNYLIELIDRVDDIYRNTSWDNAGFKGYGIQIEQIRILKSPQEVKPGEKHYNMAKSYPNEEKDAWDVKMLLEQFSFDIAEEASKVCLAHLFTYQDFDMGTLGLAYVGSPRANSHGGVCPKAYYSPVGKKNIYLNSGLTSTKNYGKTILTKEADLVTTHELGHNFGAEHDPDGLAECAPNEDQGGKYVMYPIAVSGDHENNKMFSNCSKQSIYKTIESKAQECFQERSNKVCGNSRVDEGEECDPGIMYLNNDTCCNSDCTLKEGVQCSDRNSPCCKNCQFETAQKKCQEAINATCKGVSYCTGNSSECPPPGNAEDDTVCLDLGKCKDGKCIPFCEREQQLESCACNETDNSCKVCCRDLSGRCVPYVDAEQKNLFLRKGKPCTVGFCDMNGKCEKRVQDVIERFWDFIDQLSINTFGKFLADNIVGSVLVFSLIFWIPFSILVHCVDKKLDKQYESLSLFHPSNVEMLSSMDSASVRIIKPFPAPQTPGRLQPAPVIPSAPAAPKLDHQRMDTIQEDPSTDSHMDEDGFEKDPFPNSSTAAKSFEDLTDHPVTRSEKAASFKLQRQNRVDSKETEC

NS3 = NS3 (Hepatitis C virus, UniProt A3EZJ3); assay: NS3h DNA-binding inhibition IC50 – biochemical, fluorescence polarization, ChemBridge library, dose response (AID 743264)
Chain of NS3 (A3EZJ3 whole entry): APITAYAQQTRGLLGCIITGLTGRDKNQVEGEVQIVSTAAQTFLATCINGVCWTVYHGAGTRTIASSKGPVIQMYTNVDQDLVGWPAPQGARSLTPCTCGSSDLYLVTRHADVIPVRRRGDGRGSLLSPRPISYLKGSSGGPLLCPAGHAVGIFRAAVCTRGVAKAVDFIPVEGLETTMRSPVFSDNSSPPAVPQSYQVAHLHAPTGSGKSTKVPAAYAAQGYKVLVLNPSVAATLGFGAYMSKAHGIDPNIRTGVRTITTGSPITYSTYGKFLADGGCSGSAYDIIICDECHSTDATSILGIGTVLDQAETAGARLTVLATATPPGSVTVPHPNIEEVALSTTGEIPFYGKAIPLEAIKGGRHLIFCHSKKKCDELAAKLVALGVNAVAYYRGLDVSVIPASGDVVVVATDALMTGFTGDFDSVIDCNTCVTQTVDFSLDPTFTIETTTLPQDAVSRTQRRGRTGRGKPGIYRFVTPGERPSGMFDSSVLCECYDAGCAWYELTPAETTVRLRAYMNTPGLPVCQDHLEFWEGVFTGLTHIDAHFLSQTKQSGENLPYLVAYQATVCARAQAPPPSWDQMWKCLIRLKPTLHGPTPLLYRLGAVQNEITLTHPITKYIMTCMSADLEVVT

[9] = cytotoxicity in MITF-independent A375 cells – cell-based, CellTiter-Glo luminescence, dry powder, set 4, counter-screen for MITF inhibitor project, dose response (AID 624364); assay type: functional; settings: A-375;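 further: A375 melanoma cells are MITF independent so this is a counter screen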
[10] = viability loss in MITF-independent A375 cells – cell-based, CellTiter-Glo luminescence, dry powder, set 2, counter-screen for MITF inhibitor project, dose response (AID 624489); assay type: functional; settings: A-375;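 further: actives are compounds lowering A375 viability meaning general cytotoxicity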
[11] = target: T2, Disintegrin and metalloproteinase domain-containing protein 17; assay: exosite inhibitors of ADAM17, dose response, biochemical (AID 743260)
[12] = inhibition of ADAM10 peptide cleavage – biochemical, FRET peptide substrate, recombinant human ADAM10, selectivity assay for ADAM17 exosite inhibitor project, dose response (AID 743259);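 further: ADAM10 enzyme cleaving a FRET peptide substrate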
[13] = TNFa-induced NF-kB reporter signal decrease – HEK293 LMP1 reporter cells, dry powder, set 2, selectivity assay for EBV LMP1 NF-kB inhibitor project, dose response (AID 624369); assay type: functional
[14] = inhibitors of non-replicating M. tuberculosis, dose response, luciferase, dry powder (AID 651619); assay type: functional; settings: Mycobacterium tuberculosis
[15] = inhibitors of non-replicating M. tuberculosis, dose response, luciferase, dry powder (AID 651620); assay type: functional; settings: Mycobacterium tuberculosis
[16] = growth inhibition of replicating M. tuberculosis, dose response, counter-screen, dry powder, IC90 (AID 651617); assay type: functional; settings: Mycobacterium tuberculosis
[17] = liver cell line viability loss – HepG2, luminescence plate reader, powder samples, set 2, cytotoxicity control, dose response (AID 651860); assay type: functional, cell-based
[18] = target: NAD-dependent protein deacylase sirtuin-5, mitochondrial (Homo sapiens, UniProt Q9NXA8); assay: sirtuin-5 deacylation blockers, concentration series – biochemical, fluorescence imaging, cherry-pick, set 5, dose response (AID 720591);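 further: desuccinylation of succinyl peptide AMC substrate read as fluorescence after trypsin release; potency of inhibitors that lower fluorescence and may act on trypsin instead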
Chain of NAD-dependent protein deacylase sirtuin-5, mitochondrial (Q9NXA8 whole entry): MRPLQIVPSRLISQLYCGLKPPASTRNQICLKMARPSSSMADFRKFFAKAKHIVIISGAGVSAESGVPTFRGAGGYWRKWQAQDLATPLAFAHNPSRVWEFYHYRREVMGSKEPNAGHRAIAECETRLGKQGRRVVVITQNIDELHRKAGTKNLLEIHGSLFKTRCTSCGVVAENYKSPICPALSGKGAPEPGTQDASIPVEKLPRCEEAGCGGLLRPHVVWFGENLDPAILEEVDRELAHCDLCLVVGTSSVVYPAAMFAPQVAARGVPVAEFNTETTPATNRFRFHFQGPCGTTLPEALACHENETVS

[19] = Late stage counterscreen for inhibitors of Trypanosoma brucei methionyl tRNA synthetase (MetRS): Luminescence-based cell-based high throughput dose response assay to identify compounds that are cytotoxic to Jurkat human T lymphocyte cells.; assay type: functional
[20] = viability loss in HepG2 hepatoma cells – cell-based, ATP luminescence, cherry-pick, activator set 2, cytotoxicity control, dose response (AID 1053143); assay type: functional
Kallikrein-7 = Kallikrein-7 (Homo sapiens, UniProt P49862); assay: Fluorescence Intensity-based biochemical primary high throughput dose response assay to identify activators of kallikrein-7 (K7) zymogen.
Chain of Kallikrein-7 (P49862 whole entry): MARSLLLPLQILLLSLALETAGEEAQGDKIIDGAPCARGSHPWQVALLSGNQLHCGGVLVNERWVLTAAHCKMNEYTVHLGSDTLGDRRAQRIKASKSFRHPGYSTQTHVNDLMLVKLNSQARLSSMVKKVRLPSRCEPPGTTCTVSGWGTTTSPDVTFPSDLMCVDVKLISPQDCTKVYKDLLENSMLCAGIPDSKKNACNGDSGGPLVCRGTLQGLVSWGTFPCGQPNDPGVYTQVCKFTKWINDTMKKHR

[21] = cytotoxicity in HEK293 background cells – cell-based, dry powder, set 2, counter-screen for EBV LMP1 inhibitor project, dose response (AID 624374); assay type: functional
[22] = inhibitors of TRPM1-promoter reporter in SK-MEL-5 – cell-based, luciferase, dry powder, set 9, MITF inhibitor project, dose response (AID 651588); assay type: functional
[23] = MITF Orthogonal Assay: MALME3 CTG Assay Measured in Cell-Based System Using Plate Reader - 2084-04_Inhibitor_Dose_DryPowder_Activity_Set6.; assay type: functional; settings: MALME-3
[24] = growth inhibition of SK-MEL-5 melanoma cells – cell-based, CellTiter-Glo luminescence, dry powder, set 8, orthogonal assay for MITF inhibitor project, dose response (AID 651586); assay type: functional
[25] = growth inhibition of MALME3 cells – cell-based, CellTiter-Glo luminescence, dry powder, set 5, orthogonal assay for MITF inhibitor project, dose response (AID 651584); assay type: functional; settings: MALME-3
[26] = MITF Orthogonal Assay: SK-MEL-5 CTG Assay Measured in Cell-Based System Using Plate Reader - 2084-02_Inhibitor_Dose_DryPowder_Activity_Set7.; assay type: functional
[27] = MITF: Counter assay: A375 proliferation Measured in Cell-Based System Using Plate Reader - 2084-03_Inhibitor_Dose_DryPowder_Activity_Set8.; assay type: functional; settings: A-375
[28] = cytotoxicity in MITF-independent A375 cells – cell-based, CellTiter-Glo luminescence, dry powder, set 9, counter-screen for MITF modulator project, dose response (AID 651591); assay type: functional; settings: A-375
[29] = inhibitors of TRPM1-promoter reporter in SK-MEL-5 – cell-based, luciferase, dry powder, set 8, MITF inhibitor project, dose response (AID 624430); assay type: functional
[30] = target: Protein disulfide-isomerase (Homo sapiens, UniProt P07237); assay: inhibition of PDI-mediated insulin reduction – biochemical, turbidity, dry powder samples, set 2, confirmation (AID 652146)
Chain of Protein disulfide-isomerase (P07237 whole entry): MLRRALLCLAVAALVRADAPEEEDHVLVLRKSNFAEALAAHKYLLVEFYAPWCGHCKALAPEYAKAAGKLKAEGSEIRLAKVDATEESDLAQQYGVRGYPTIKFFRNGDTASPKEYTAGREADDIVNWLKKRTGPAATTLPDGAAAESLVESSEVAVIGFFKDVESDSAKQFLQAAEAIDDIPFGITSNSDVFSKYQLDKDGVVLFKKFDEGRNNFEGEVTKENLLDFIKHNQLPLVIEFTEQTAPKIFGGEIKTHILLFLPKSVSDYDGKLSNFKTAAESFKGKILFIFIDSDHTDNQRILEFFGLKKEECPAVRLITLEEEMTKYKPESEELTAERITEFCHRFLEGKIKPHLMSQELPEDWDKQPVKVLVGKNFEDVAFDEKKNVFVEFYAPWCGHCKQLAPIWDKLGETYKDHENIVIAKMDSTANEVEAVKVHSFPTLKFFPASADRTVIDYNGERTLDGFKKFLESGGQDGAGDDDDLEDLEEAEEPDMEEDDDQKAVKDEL

[31] = inhibitors acting on PAX2 in cells – cell-based, plate reader, dry powder samples, selectivity assay for PAX8 inhibitor project, dose response (AID 743048); assay type: functional;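 further: HEK293 cells carrying a WT1 promoter luciferase reporter driven by expressed Pax2; potency is for inhibition of Pax2 driven reporter signal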
[32] = COV362 cell viability loss – plate reader, dry powder, SA12, cytotoxicity control for PAX8 inhibitor project, dose response (AID 743144); assay type: functional, cell-based
[33] = PAX5 cellular inhibition readout – cell-based, plate reader, dry powder samples, selectivity assay for PAX8 inhibitor project, dose response (AID 743047); assay type: functional;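 further: HEK293 cells carrying a Pax5 driven CD19 promoter luciferase reporter; potency of inhibitors that lower reporter luminescence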
[34] = COV434 cell viability loss – plate reader, dry powder, SA7, cytotoxicity control for PAX8 inhibitor project, dose response (AID 743145); assay type: functional, cell-based
[35] = OV-90 cell viability loss – plate reader, dry powder, SA8, PAX8 inhibitor project, dose response (AID 743149); assay type: functional, cell-based
[36] = PAX8-dependent cell viability loss – plate reader, dry powder, dose response (AID 743049); assay type: functional, cell-based
[37] = viability loss in CEM21 cells – cell-based, plate reader, dry powder, cytotoxicity control, dose response (AID 687026); assay type: functional
[38] = toxicity toward immortalized ovarian surface epithelium – cell-based, plate reader, dry powder samples, cytotoxicity control for PAX8 inhibitor project, dose response (AID 743045); assay type: functional
[39] = general cell-killing toxicity readout – plate reader, dry powder samples, cytotoxicity control for PAX8 inhibitor project, dose response (AID 743021); assay type: functional, cell-based

COc1ccccc1-c1ccc2c(c1)[C@H]1[C@H](CCN1C(=O)C1CCCCC1)[C@@H](CO)N2
AC50 (Paired box protein Pax-8): 9.8 µM (active) | AC50 [1]: 5.38 µM (active) | AC50 [2]: 42.1 µM (active) | AC50 [3]: 18.7 µM (active) | AC50 [4]: 30.4 µM (active)

COc1ccc(C(Nc2cc(C)ccn2)c2ccc3ccc(C)nc3c2O)cc1 (stereo not given)
EC50 [5]: 14.3 µM (active) | EC50 (Streptokinase A): > 150 µM (not active) | EC50 [6]: 2.15 µM (active) | EC50 [7]: 24.7 µM (active) | EC50 (Streptococcus): 54.9 µM (active) | IC50 [8]: > 69.5 µM (inactive)

O=C1NC(=O)C(=Cc2ccc(-c3cc([N+](=O)[O-])ccc3O)o2)C(=O)N1
IC50 (NS3): 66.1 µM (active)

O=C1C(NS(=O)(=O)c2ccc(Br)s2)=C(N2CCOCC2)C(=O)c2ccccc21
AC50 [9]: > 70 µM (inactive) | AC50 [10]: > 70 µM (inactive)

COc1ccc(C(c2nnnn2Cc2ccccc2)N2CCN(C/C=C/c3ccccc3)CC2)cc1 (stereo not given)
IC50 [11]: > 69.5 µM (inactive) | IC50 [12]: > 69.5 µM (inactive)

O=C(C[C@@H]1CC[C@H]2[C@@H](COC[C@H](O)CN2Cc2ccc(Oc3ccccc3)cc2)O1)N1CCc2ccccc2C1
AbsAC35 [13]: 67.78 µM

[N-]=[N+]=NCCOCCNC(=O)CCCOc1ccc(CSc2nnc(-c3ccc(Cl)cc3)o2)nc1
IC90 [14]: 8 µM (active) | IC90 [15]: 8 µM (active) | IC90 [16]: 62 µM (active)

Cc1cc(C)c(S(=O)(=O)Nc2nc(C(C(=O)OC(C)C)C(=O)C(F)(F)F)nc3ccccc23)c(C)c1 (stereo not given)
AC50 [17]: > 52 µM (inactive)

CCOC(=O)C1=CCN(S(=O)(=O)c2ccc(C)cc2)C1c1cccc(Br)c1 (stereo not given)
AC50 [18]: > 30 µM (inactive)

O=C(NCc1nc2ccccc2[nH]1)C1=C[C@H](c2csc3ccccc23)C[C@H](OCCCCO)O1
IC50 [19]: 60.3 µM (inactive)

COc1cccc(NC(=O)c2ccc3c(c2)N(C)CCS3)c1
AC50 [20]: 26 µM (active)

Cc1oc2c(CN3CCCCC3)c(O)ccc2c(=O)c1-c1ccc(Br)cc1
EC50 (Kallikrein-7): 9.73 µM (active)

CC(C)(C)[S@@+]([O-])N1Cc2cc(C(=O)NCc3ccccc3F)nc(-c3cccc(-c4cccnc4)c3)c2[C@H]1CCO
AbsAC35 [21]: 245.66 µM

CCN1CCN(C2=C(Nc3ccc(F)cc3F)C(=O)c3ccccc3C2=O)CC1
AC50 [22]: 12.3 µM (active) | AC50 [23]: 26.3 µM (active) | AC50 [24]: > 70 µM (inactive) | AC50 [25]: 26.3 µM (active) | AC50 [26]: 8.99 µM (active) | AC50 [27]: > 70 µM (inactive) | AC50 [28]: > 70 µM (inactive) | AC50 [29]: 2.41 µM (active)

C/C1=C\C[C@H](OC(=O)c2ccc(O)cc2)/C(C)=C/[C@@H](O)C(C)(C)CCC1
AC50 [30]: 2 µM (active)

O=C(N1CCCCC1)[C@@]1(CCS(=O)(=O)c2ccccc2)N=C(c2ccc(OCCCO)cc2)O[C@H]1c1ccccc1
AC50 [31]: 49.5 µM (active) | AC50 [32]: > 100 µM (inactive) | AC50 [1]: 32.1 µM (active) | AC50 [3]: 64.6 µM (active) | AC50 [33]: 41.9 µM (active) | AC50 [34]: > 100 µM (inactive) | AC50 [35]: > 100 µM (inactive) | AC50 [36]: 87.1 µM (active)

Nc1nonc1C(=O)NCCNCc1c(OCc2ccccc2F)ccc2ccccc12
AC50 [37]: > 70 µM (inactive) and 60.8 µM (active)

COc1ccc(NC(=O)N2CCCCN3[C@@H](CO)[C@@H](c4ccc(C#Cc5ccccc5)cc4)[C@@H]3C2)cc1
AC50 (Paired box protein Pax-8): 14.9 µM (active) | AC50 [38]: 37.1 µM (active) | AC50 [1]: 22.2 µM (active) | AC50 [3]: 23.3 µM (active) | AC50 [39]: 42.1 µM (active) | AC50 [4]: 40.1 µM (active)
